Earlier results on 2 compounds are cited in publication PMC10146281, “Pharmacokinetic and Pharmacodynamic Characteristics of Pelubiprofen Tromethamine vs. Pelubiprofen in Healthy Subjects” (Pharmaceutics, 2023).

The conditions of the data set: cited from earlier work.

Like-named read-outs stand apart in the source and are kept apart here.

Regarding `CC(C)Cc1ccc(C(C)C(=O)O)cc1` (centres unmarked) [ibuprofen], the Cmax entry is “approximately 24 mg/L”. Take `CC(C)Cc1ccc(C(C)C(=O)O)cc1.N=C(N)NCCC[C@H](N)C(=O)O` (centres unmarked) [ibuprofen arginate]: the Cmax result (in vivo) was “approximately 30 mg/L”.
